Source: paper PMC3216237 (Environmental science & technology, 2011)

What was measured:
rat liver microsomes = assay type: in vitro ADME; details: for Enantiomeric fraction (EF) of OH-PCB metabolite: column not specified, microsomal incubation 50 μM PCB, 30 min
[1] = liver of rats treated with Aroclor 1254; cited from earlier work
Ryanodine receptor (RyR) = details: enantiospecific, only this atropisomer active; cited from earlier work

Compound | Enantiomeric fraction (EF) of OH-PCB metabolite (rat liver microsomes) | also measured
Oc1cc(Cl)c(Cl)c(-c2ccc(Cl)c(Cl)c2Cl)c1Cl [5′-132] | 0.31 | Enantiomeric fraction, CB column (rat liver microsomes; Cyclosil-B column, analysis conducted at 170 °C, metabolite analysed as MeO-PCB): 0.31 ^a, ^#
Oc1cc(Cl)c(Cl)c(-c2cc(Cl)c(Cl)cc2Cl)c1Cl [5–149] | 0.65 | 
Clc1ccc(Cl)c(-c2c(Cl)ccc(Cl)c2Cl)c1 [PCB 95] |  | Enantiomeric fraction (EF) in liver [1]: 0.63
Clc1cc(Cl)c(-c2c(Cl)ccc(Cl)c2Cl)cc1Cl [PCB 149] |  | Enantiomeric fraction (EF) in liver [1]: 0.45
Oc1cc(Cl)c(Cl)c(-c2ccc(Cl)cc2Cl)c1Cl [5–91] | 0.54 | 
Oc1cc(Cl)c(Cl)c(-c2cc(Cl)ccc2Cl)c1Cl [5–95] | approximately 0.33 | 
Clc1ccc(Cl)c(-c2c(Cl)ccc(Cl)c2Cl)c1Cl [(-)-PCB 136, 2,2′,3,3′,6,6′-hexachlorobiphenyl] |  | Sensitization of RyRs (Ryanodine receptor (RyR)): active
